Consider one compound from patent US20210128596A1, “COMPOSITIONS AND METHODS FOR TREATING SEPTIC CARDIOMYOPATHY” (UNIVERSITY OF PENNSYLVANIA, priority 2017, published 2021).

“Also recorded” adds a separate entry of the source.

The test system of one assay is C57BL/6 mice. The assay can be described thus: In vivo cardiac adrenergic sensitivity (hemodynamics, isoproterenol). Details: species or system mouse. The conditions noted are these: 12 h post-CLP, LGM2605 6 h post-CLP. As to the method:
In vivo cardiac adrenergic sensitivity measurements—Hemodynamics measurements were performed, as published^21. Mice were anesthetized with 2% Tribromoethanol (Avertin). The right carotid artery was cannulated with a 1.4 French micro-manometer (Millar Instruments, Houston, Tex.) and was advanced into LV cavity, measuring LV pressure, LV end-diastolic pressure (LVEDP) and heart rate (HR). These parameters as well as maximal values of the instantaneous first derivative of LV pressure (+dP/dtmax, as a measure of cardiac contractility) and minimum values of the instantaneous first derivative of LV pressure (−dP/dtmin, as a measure of cardiac relaxation) were recorded at baseline and after administration, through the jugular vein, of increasing doses of the β-adrenergic receptor (βAR) agonist, isoproterenol (0.1 ng, 0.5 ng, 1 ng, 5 ng, 10 ng). Data was recorded and analyzed on a PowerLab System (AD Instruments).

For assay [1], the system named is ventricular tissue of septic mice. The assay can be described thus: Glucose and fatty-acid metabolism related gene expression in ventricular tissue. The format is in vivo, mouse. As to the method:
(§1) RNA purification and gene expression analysis—Total RNA was purified from AC16 cells or hearts using the TRIzol reagent according to the instructions of the manufacturer (Invitrogen). DNase-treated RNA was used for cDNA synthesis using the ProtoScript II First Strand cDNA Synthesis Kit (New England Biolabs). Quantitative real-time PCR was performed with the Sybr Select Master Mix (Applied Biosystems). Incorporation of the SYBR green dye into the PCR products was monitored with the Applied Biosystems StepOnePlus Real-Time PCR System. Samples were normalized against mouse 36B4 or human rps13 RNA.

The subject of assay [2] is adult cardiomyocytes isolated from septic mice. Put plainly: Mitotracker Red staining of adult cardiomyocytes isolated from septic mice. To be noted: adult cardiomyocytes isolated 12 hours post-CLP. In kind it is in vivo, mouse. As to the method: Adult mouse cardiomyocytes isolation-Adult mouse cardiomyocytes (ACMs) were isolated from ventricles of C57BL/6 mice 12 hours post-sham surgery, CLP surgery or combined performance of CLP and treatment with LGM2605 at 6 hours post-surgery. Hearts from heparinized mice (90 USP; ip) were cannulated through the aorta. Hearts were perfused with perfusion buffer (120.4 mMNaCl, 14.7 mM KCL, 0.6 mM NaH2PO4, 0.6 mM KH2PO4, 1.2 mM MgSO4, 10 mM Hepes, 4.6 mM NaHCO3, 30 mMtaurine, 10 mM BDM, 5.5 mM glucose; pH 7.4) for 3 min followed by digestion with perfusion buffer containing 19250 units Collagenese type II (Worthington), 5-6 mg trypsin and 0.02 mM CaCl2 for 7 min. Ventricles were gently […] into small pieces, perfusion buffer containing 5 mg/ml BSA and 0.125 mM CaCl2 was added and filtered with 100 μm nylon. The filtrate was pelleted by gravity for 5 min, centrifuged for 30 sec at 700 rpm and the pellet resuspended in perfusion buffer containing 5 mg/ml BSA and 0.225 mM CaCl2. The cells were pelleted by gravity for 10 min, centrifuged for 30 sec at 700 rpm and the pellet resuspended in perfusion buffer containing 5 mg/ml BSA and 0.525 mM CaCl2. […] Mitotracker Red fluorescence was recorded at 581 (excitation) and 644 nm (emission).

Assay [3] concerns ventricular tissue of septic mice. Put plainly: Antioxidant-related gene expression in ventricular tissue. In kind it is in vivo, mouse. To be noted: ventricular tissue 12 hours after CLP. As to the method:
as §1

Assay [4] shares this test system. The assay can be described thus: DHE staining of cardiac tissue (ROS). In kind it is in vivo, mouse. The conditions noted are these: ventricular tissue 12 hours post-CLP, LGM2605 6 h post-CLP. As to the method:
DHE staining of cardiac tissue—Live myocardium was isolated from mice 12 hours after surgery and sectioned into 10 sections using a clean razor blade. Tissue was stained with 20 μM dihydroethidium (DHE) for 30 minutes at room temperature and imaged on a Zeiss Axio Observer Z1 fluorescent microscope at 490±10 nm excitation and 632±30 nm emission. Oxidized DHE fluoresces red and intercalates DNA. Individual nuclei were measured within each visual field using Zeiss Zen Blue software, and visual fields were averaged to measure mean fluorescence intensity for each mouse.

The subject of a further assay is MCU and MICU1. Put plainly: MCU and MICU1 expression in heart tissue of CLP mice. The format is in vivo, mouse. As to the method:
Mice were either sham treated (n=3) or subjected to cecal ligation puncture (CLP, n=6). SDG was administered to three mice following CLP.
as §1
(§2) Protein purification and analysis—Isolated heart tissue or AC16 cells were homogenized in radioimmune precipitation assay buffer containing protease and phosphatase inhibitors (Pierce Protease and Phosphatase Inhibitor Mini Tablets, Thermo Scientific). 30-50 μg of total protein extract was applied to SDS-PAGE and transferred onto nitrocellulose membranes.

The test system of assay [5] is AC16 cells. The assay can be described thus: Mitochondrial membrane potential (TMRM staining) in AC16 cells. The format is cell-based, human. As to the method: To measure mitochondrial membrane potential, AC16 cells were stained with TMRM (62.5 nM, T668, Molecular Probes) for 30 minutes in the dark. TMRM stain was washed in warm PBS three times and imaged at 200× magnification using the Cy3 filter (510 nm excitation wavelength).

The next assay relates to IκBα. Put plainly: Phosphorylated and total IkBα immunoblot, ventricular tissue. In kind it is in vivo, mouse. The conditions noted are these: ventricular tissue 12 hours post-surgery. As to the method:
as §2
Background: In western blotting, separated proteins are transferred to a membrane and probed.

Assay [6] has as its system AC16 cells. The assay can be described thus: cAMP levels in AC16 cells. In kind it is cell-based, human. As to the method: AC16 cells were either left unstimulated or stimulated with either forskolin or isoproterenol for 12 hours and then treated with SDG, Liposaccharide (LPS) or both.
Cell culture—A human ventricular cardiomyocyte-derived cell line, designated AC-16, was used for some in vitro experiments. Cells were maintained in Dulbecco's modified Eagle's medium-nutrient mixture F-12 (DMEM-F-12; Invitrogen, Carlsbad, Calif.).

The mark [7] stands for this setting: ventricular tissue 12 hours after CLP.

For the compound `COc1cc(C[C@@H](CO[C@@H]2O[C@H](CO)[C@@H](O)[C@H](O)[C@H]2O)[C@H](CO[C@@H]2O[C@H](CO)[C@@H](O)[C@H](O)[C@H]2O)Cc2ccc(O)c(OC)c2)ccc1O` [LGM2605, secoisolariciresinol diglucoside], in the assay on C57BL/6 mice, the responsiveness to isoproterenol result is “less robust in both septic groups regardless of LGM2605 treatment”. The “basal LVdP/dtmax and LVdP/dtmin” value in the assay on C57BL/6 mice (compared to sham surgery) is “lower basal myocardial LVdP/dtmax (FIG. 14B) and LVdP/dtmin (FIG. 14C) with or without LGM2605 administration”. Also, the “expression of fatty acid oxidation and glucose metabolism-related genes” value in [1] (CLP mice treated with SDG) is “did not restore the expression of fatty acid oxidation and glucose metabolism-related genes”. Also, the “PPARα and LCAD expression” value in [1] (setting [7]) is “did not reverse the CLP-mediated changes in the PPARα and LCAD”. The “cardiac PDK4 mRNA levels” value in assay [1] (setting [7]) is given as “This increase was not alleviated by administration of LGM2605”. Besides, the “mitochondrial abundance (Mitotracker staining)” value is “prevents CLP-associated reduction in mitochondrial abundance” in [2]; “restored mitochondrial abundance in vitro and in vivo” in assay [2] (listed as SDG). Further, the “cardiac expression of antioxidant genes (NRF2, HO1, GSTM1, NQO1, UCP2, UCP3)” value in assay [3] is listed as “not accompanied by prevention of the CLP-mediated changes in cardiac expression of antioxidant genes”. For the same compound, the “ROS accumulation (DHE staining intensity)” value in [4] is listed as “alleviated significantly by LGM2605 administration”; in [4] (listed as SDG), “reduced ROS accumulation”. Further, the “MCU protein level (western blot)” value in the assay with MCU and MICU1 (heart tissue, SDG following CLP, listed as SDG) is “increases MCU protein level; also recorded: increased protein expression of the mitochondrial calcium uniporter”. Moreover, the “MCU and MICU1 mRNA and protein expression” value in the assay on MCU and MICU1 (ventricular tissue 12 hours post-CLP, LGM2605 6 hrs post-CLP) is on record as “did not affect expression of these proteins”. The “TMRM staining (mitochondrial membrane potential)” value was “lost its beneficial effect in restoring TMRM staining” with AC16 cells [5] (LGM2605 with 50 μM 2,4-DNP, with or without LPS); “significantly restored TMRM staining toward baseline” in the assay with AC16 cells [5] (LPS and LGM2605 12 hours). In the assay with IκBα, the “phosphorylation of IκBα” value is reported as “prevented by LGM2605”. Also, the cAMP levels entry in the assay on AC16 cells [6] (SDG in the presence of LPS) is reported as “this increase was abolished in the presence of LPS”; in the assay with AC16 cells [6] (in the presence of forskolin or isoproterenol), “appears to be insignificant”; in the assay with AC16 cells [6] (non-stimulated, 12 hours), “increased cAMP levels”.
